From patent publication US10683292B2, “Purine and 3-deazapurine analogues as choline kinase inhibitors” (NERVIANO MEDICAL SCIENCES S.R.L., priority 2016, dated 2020)
Structures can show the parent of a compound that is named as a salt. Where two headings read alike, the source gives them in different places.

Key:
Δ49N-hChoKα = target: T1, Δ49N-hChoKα (Homo sapiens, UniProt P35790); experiment: Biochemical kinase inhibition assay (Kinase-Glo Luminescent Kinase Assay) on Δ49N-hChoKα
T1 construct: cDNA fragment 362-1534, corresponding to aminoacids 50-457; GST (N, cleaved yes); Prescission Protease recognition site (N, cleaved yes); made in house; host or cells: Escherichia coli BL21pLysS (DE3)
Experimental: (§1) The biochemical activity of compounds against Δ49N-ChoKα and ChoKβ FL were determined using the Kinase-Glo™ Luminescent Kinase Assay (Promega cat. V6711).
(§2) Compounds were 3-fold serially diluted from 10 to 0.0005 μM, then incubated for 60 minutes at rt in the presence of ATP 5 μM, choline (5 μM for ChoKα and 20 μM for ChoKβ) and enzyme in a final volume of 19 μL of kinase buffer (50 mM Hepes pH 7.5, 10 mM MgCl2, 1 mM DTT, 3 μM Na3VO4 and 0.2 mg/mL BSA). The final concentration of DMSO was 1%.
(§3) At the end of the incubation, an amount of 19 μL of KinaseGlo Reagent was added to each well to stop the reaction and after 30 minutes the luminescence signal was measured using ViewLux reader (Perkin Elmer).
(§4) The data per each molecule are analyzed by an internally customized version of the SW package “Assay Explorer” which provides sigmoidal fittings of the ten-dilution curves for IC50 determination using a 4 parameter logistic equation: y=bottom+(top−bottom)/(1+10^((log IC50−x)*slope)) where x is the logarithm of the inhibitor concentration, y is the response; y starts at bottom and goes to top with a sigmoid shape.

hChoKβ FL = target: T2, hChoKβ FL (Homo sapiens, UniProt Q9Y259); experiment: Biochemical kinase inhibition assay (Kinase-Glo Luminescent Kinase Assay) on hChoKβ FL; settings: ATP 5 μM, choline 20 μM, 60 minutes at rt; read-out: IC50 ChoKβ
T2 construct: hChoKβ full length (FL), corresponding to aminoacids 2-395; GST (N, cleaved yes); Prescission Protease recognition site (N, cleaved yes); made in house; host or cells: Escherichia coli BL21pLysS (DE3)
Experimental: as §1, §2, §3, §4

[1] = tested on: MDA-MB-468 breast cancer cell line; experiment: Phosphocholine determination assay (mechanism of action in cells), cell extracts; format: cell-based; settings: 24 h
Experimental: Phosphocholine Determination Assay (Mechanism of Action in Cells)
After 24 h, fresh medium and a compound of general formula (I) were added for further 24 h. At the end of the treatment, the cells were trypsinised, counted and the diameter was determined using a Coulter Counter (Multisizer 3, Beckman). […] Then, 0.7 mL ice-cold absolut EtOH were added (final ratio EtOH/H2O 70:30, v/v). After 24 h at −20° C. the samples were sonicated and centrifuged at 14,000×g for 30 minutes.
Phosphocholine concentration levels were assessed in the supernatants using an Ultra High Pressure Liquid Chromatography system (UPLC®, Waters) coupled with a triple quadrupoles mass spectrometer (TQD, Waters) operating in single reaction monitoring mode (SRM). Analyses were performed using Acquity HSS T3 column 2.1×50 mm column, 1.8 μm particle size. […] Waters TQD triple quad mass spectrometer was equipped with an electrospray ion source operating in the positive mode. Source parameters were set as follows: desolvation gas flow 1000 L/h, cone gas flow 50 L/h; collision gas flow 0.2 mL/min; source temperature 130° C.; desolvation temperature 450° C. Dimethyl glicine (DMG) was added to samples as internal standard at 100 μM final concentration. […] The concentration of PCho in the sample was normalized to the total volume of cells (number cells×volume of single cell considered like a sphere).

[2] = ATP 5 μM, choline 5 μM, 60 minutes at rt, read-out: IC50 ChoKα

T2 sequence (Q9Y259 2-395): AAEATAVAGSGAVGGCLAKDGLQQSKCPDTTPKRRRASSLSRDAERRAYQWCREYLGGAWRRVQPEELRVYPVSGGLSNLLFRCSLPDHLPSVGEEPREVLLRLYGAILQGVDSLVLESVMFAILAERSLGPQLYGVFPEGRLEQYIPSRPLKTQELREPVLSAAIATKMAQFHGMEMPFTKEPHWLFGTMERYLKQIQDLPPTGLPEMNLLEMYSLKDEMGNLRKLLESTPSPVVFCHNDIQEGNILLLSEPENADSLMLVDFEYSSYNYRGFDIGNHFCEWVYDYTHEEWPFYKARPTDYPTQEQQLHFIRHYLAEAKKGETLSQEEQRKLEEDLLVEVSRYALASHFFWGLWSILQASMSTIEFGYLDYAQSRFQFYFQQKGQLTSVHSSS
T1 sequence (P35790 50-457, stated change not applied): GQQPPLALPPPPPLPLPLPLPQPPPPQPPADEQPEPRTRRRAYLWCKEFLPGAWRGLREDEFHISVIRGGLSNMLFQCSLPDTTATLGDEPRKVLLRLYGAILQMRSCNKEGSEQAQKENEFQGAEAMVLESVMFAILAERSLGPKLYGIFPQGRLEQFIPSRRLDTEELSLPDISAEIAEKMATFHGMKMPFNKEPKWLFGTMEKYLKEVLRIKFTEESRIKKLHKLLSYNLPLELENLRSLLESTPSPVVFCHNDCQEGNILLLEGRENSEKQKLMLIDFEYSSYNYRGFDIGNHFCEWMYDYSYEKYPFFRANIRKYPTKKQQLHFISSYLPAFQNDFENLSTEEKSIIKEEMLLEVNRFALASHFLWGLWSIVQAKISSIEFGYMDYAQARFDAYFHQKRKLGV

| Compound | IC50 (Δ49N-hChoKα; [2]) [µM] | IC50 (hChoKβ FL) [µM] | further results |
| --- | --- | --- | --- |
| CN(c1nc(CC(N)=O)cs1)C(=O)[C@H]1CC[C@@H](n2cnc3c(N)nc(Cl)nc32)CC1 [cpd 164, cis-4-(6-amino-2-chloro-9H-purin-9-yl)-N-[4-(2-amino-2-oxoethyl)-1,3-thiazol-2-yl]-N-methylcyclohexanecarboxamide] | 0.07 | > 10 | – |
| CC(C)(C)OC(=O)N1CCc2nc(NC(=O)[C@H]3CC[C@@H](n4cnc5c(N)nc(Cl)nc54)CC3)sc2C1 [cpd 169, tert-butyl 2-({[cis-4-(6-amino-2-chloro-9H-purin-9-yl)cyclohexyl]carbonyl}amino)-6,7-dihydro[1,3]thiazolo[5,4-c]pyridine-5(4H)-carboxylate] | 0.052 | 5.55 | – |
| CN1CCc2nc(NC(=O)[C@H]3CC[C@@H](n4cnc5c(N)nc(F)nc54)CC3)sc2C1 [cpd 179, cis-4-(6-amino-2-fluoro-9H-purin-9-yl)-N-(5-methyl-4,5,6,7-tetrahydro[1,3]thiazolo[5,4-c]pyridin-2-yl)cyclohexanecarboxamide] | – | – | [Phosphocholine] in MDA-MB-468 cell extracts ([1]; compound 0.08 μM): 6.40 mM; [Phosphocholine] in MDA-MB-468 cell extracts ([1]; compound 0.4 μM): 3.27 mM; [Phosphocholine] in MDA-MB-468 cell extracts ([1]; compound 2 μM): 0.69 mM |
| CC(C)(C)OC(=O)N1[C@H]2CC[C@@H]1c1sc(NC(=O)[C@H]3CC[C@@H](n4cnc5c(N)nc(Cl)nc54)CC3)nc1C2 [cpd 187, tert-butyl (5S,8R)-2-({[cis-4-(6-amino-2-chloro-9H-purin-9-yl)cyclohexyl]carbonyl}amino)-5,6,7,8-tetrahydro-4H-5,8-epiminocyclohepta[d][1,3]thiazole-9-carboxylate] | – | 5.63 | IC50 (Δ49N-hChoKα): 0.029 µM |
| Nc1nc(Cl)nc2c1ncn2[C@H]1CC[C@@H](C(=O)Nc2nc3c(s2)CC(F)(F)CC3)CC1 [cpd 188, cis-4-(6-amino-2-chloro-9H-purin-9-yl)-N-(6,6-difluoro-4,5,6,7-tetrahydro-1,3-benzothiazol-2-yl)cyclohexanecarboxamide] | 0.009 | > 10 | – |
| Nc1nc(Cl)nc2c1ncn2[C@H]1CC[C@@H](C(=O)Nc2nc3c(s2)[C@H]2CC[C@@H](C3)N2)CC1 [cpd 189, cis-4-(6-amino-2-chloro-9H-purin-9-yl)-N-[(5S,8R)-5,6,7,8-tetrahydro-4H-5,8-epiminocyclohepta[d][1,3]thiazol-2-yl]cyclohexanecarboxamide hydrochloride] | – | > 10 | IC50 (Δ49N-hChoKα): 0.027 µM |
| Nc1nc(F)nc2c1ncn2[C@H]1CC[C@@H](C(=O)Nc2nc3c(s2)CC(F)(F)CC3)CC1 [cpd 191, cis-4-(6-amino-2-fluoro-9H-purin-9-yl)-N-(6,6-difluoro-4,5,6,7-tetrahydro-1,3-benzothiazol-2-yl)cyclohexanecarboxamide] | 0.011 | > 10 | – |
| CC1(C)Cc2nc(NC(=O)[C@H]3CC[C@@H](n4cnc5c(N)nc(Cl)nc54)CC3)sc2CO1 [cpd 195, cis-4-(6-amino-2-chloro-9H-purin-9-yl)-N-(6,6-dimethyl-6,7-dihydro-4H-pyrano[4,3-d][1,3]thiazol-2-yl)cyclohexanecarboxamide] | 0.024 | 6.11 | – |
| NC(=O)CN1CCc2nc(NC(=O)[C@H]3CC[C@@H](n4cnc5c(N)nc(Cl)nc54)CC3)sc2C1 [cpd 196, cis-4-(6-amino-2-chloro-9H-purin-9-yl)-N-[5-(2-amino-2-oxoethyl)-4,5,6,7-tetrahydro[1,3]thiazolo[5,4-c]pyridin-2-yl]cyclohexanecarboxamide] | 0.026 | > 10 | – |
| COc1cccc(NC(=O)N[C@H]2CC[C@@H](n3cnc4c(N)nc(Cl)nc43)CC2)c1 [cpd 197, 1-[cis-4-(6-amino-2-chloro-9H-purin-9-yl)cyclohexyl]-3-(3-methoxyphenyl)urea] | 0.306 | 6.09 | – |
| CN1CCc2nc(NC(=O)[C@H]3CC[C@@H](n4cnc5c(N)nc(I)nc54)CC3)sc2C1 [cpd 198, cis-4-(6-amino-2-iodo-9H-purin-9-yl)-N-(5-methyl-4,5,6,7-tetrahydro[1,3]thiazolo[5,4-c]pyridin-2-yl)cyclohexanecarboxamide] | 0.033 | > 10 | – |
| CN1CCc2nc(NC(=O)[C@H]3CC[C@@H](n4cnc5c(N)nc(C#C[Si](C)(C)C)nc54)CC3)sc2C1 [cpd 199, cis-4-{6-amino-2-[(trimethylsilyl)ethynyl]-9H-purin-9-yl}-N-(5-methyl-4,5,6,7-tetrahydro[1,3]thiazolo[5,4-c]pyridin-2-yl)cyclohexanecarboxamide] | – | > 10 | IC50 (Δ49N-hChoKα): 0.067 µM |
| Nc1nc(F)nc2c1ncn2[C@H]1CC[C@@H](C(=O)Nc2nc3c(s2)COCC3)CC1 [cpd 200, cis-4-(6-amino-2-fluoro-9H-purin-9-yl)-N-(6,7-dihydro-4H-pyrano[4,3-d][1,3]thiazol-2-yl)cyclohexanecarboxamide] | 0.024 | > 10 | – |
| C#Cc1nc(N)c2ncn([C@H]3CC[C@@H](C(=O)Nc4nc5c(s4)CN(C)CC5)CC3)c2n1 [cpd 201, cis-4-(6-amino-2-ethynyl-9H-purin-9-yl)-N-(5-methyl-4,5,6,7-tetrahydro[1,3]thiazolo[5,4-c]pyridin-2-yl)cyclohexanecarboxamide] | 0.019 | > 10 | – |
| Cc1csc(NC(=O)[C@H]2CC[C@@H](n3cnc4c(N)nccc43)CC2)n1 [cpd 204, cis-4-(4-amino-1H-imidazo[4,5-c]pyridin-1-yl)-N-(4-methyl-1,3-thiazol-2-yl)cyclohexanecarboxamide] | 1.81 | > 10 | – |
| Nc1nc(Cl)nc2c1ncn2[C@H]1CC[C@@H](C(=O)Nc2nc3c(s2)CCCC3)CC1 [cpd 205, cis-4-(6-amino-2-chloro-9H-purin-9-yl)-N-(4,5,6,7-tetrahydro-1,3-benzothiazol-2-yl)cyclohexanecarboxamide] | 0.015 | 5.2 | – |

More lines, main results first:

| IC50 (Δ49N-hChoKα; [2]) [µM] | IC50 (hChoKβ FL) [µM] | Compound | further results |
| --- | --- | --- | --- |
| 0.06 | > 10 | CN(C)c1ccc2nc(NC(=O)[C@H]3CC[C@@H](n4cnc5c(N)nc(Cl)nc54)CC3)sc2c1 [cpd 165, cis-4-(6-amino-2-chloro-9H-purin-9-yl)-N-[6-(dimethylamino)-1,3-benzothiazol-2-yl]cyclohexanecarboxamide] | – |
| 0.045 | > 10 | Nc1nc(Cl)nc2c1ncn2[C@H]1CC[C@@H](C(=O)Nc2nc3cc(F)c(F)cc3s2)CC1 [cpd 168, cis-4-(6-amino-2-chloro-9H-purin-9-yl)-N-(5,6-difluoro-1,3-benzothiazol-2-yl)cyclohexanecarboxamide] | – |
| 0.054 | > 10 | COc1nc(N)c2ncn([C@H]3CC[C@@H](C(=O)Nc4nc5ccc(F)cc5s4)CC3)c2n1 [cpd 170, cis-4-(6-amino-2-methoxy-9H-purin-9-yl)-N-(6-fluoro-1,3-benzothiazol-2-yl)cyclohexanecarboxamide] | – |
| 0.105 | 5.8 | Nc1nc(Cl)nc2c1ncn2[C@H]1CC[C@@H](C(=O)Nc2nc3cc(F)c(F)c(F)c3s2)CC1 [cpd 171, cis-4-(6-amino-2-chloro-9H-purin-9-yl)-N-(5,6,7-trifluoro-1,3-benzothiazol-2-yl)cyclohexanecarboxamide] | – |
| 0.041 | > 10 | COC(=O)Cc1ccc2nc(NC(=O)[C@H]3CC[C@@H](n4cnc5c(N)nc(Cl)nc54)CC3)sc2c1 [cpd 174, methyl [2-({[cis-4-(6-amino-2-chloro-9H-purin-9-yl)cyclohexyl]carbonyl}amino)-1,3-benzothiazol-6-yl]acetate] | – |
| 0.049 | > 10 | Nc1nc(Cl)nc2c1ncn2[C@H]1CC[C@@H](C(=O)Nc2nc3ccc(Br)cc3s2)CC1 [cpd 175, cis-4-(6-amino-2-chloro-9H-purin-9-yl)-N-(6-bromo-1,3-benzothiazol-2-yl)cyclohexanecarboxamide] | – |
| 0.034 | 4.02 | Nc1nc(Cl)nc2c1ncn2[C@H]1CC[C@@H](C(=O)Nc2nc3ccc(CC(=O)O)cc3s2)CC1 [cpd 176, [2-({[cis-4-(6-amino-2-chloro-9H-purin-9-yl)cyclohexyl]carbonyl}amino)-1,3-benzothiazol-6-yl]acetic acid] | – |
| 0.023 | 6.8 | Nc1nc(Cl)nc2c1ncn2[C@H]1CC[C@@H](C(=O)Nc2nc3ccc(OC(F)F)cc3s2)CC1 [cpd 180, cis-4-(6-amino-2-chloro-9H-purin-9-yl)-N-[6-(difluoromethoxy)-1,3-benzothiazol-2-yl]cyclohexanecarboxamide] | – |
| 0.066 | > 10 | Nc1nc(Cl)nc2c1ncn2[C@H]1CC[C@@H](C(=O)Nc2nc3ccc(OC(F)(F)F)cc3s2)CC1 [cpd 181, cis-4-(6-amino-2-chloro-9H-purin-9-yl)-N-[6-(trifluoromethoxy)-1,3-benzothiazol-2-yl]cyclohexanecarboxamide] | – |
| 0.017 | 1.99 | CC(=O)Nc1ccc2nc(NC(=O)[C@H]3CC[C@@H](n4cnc5c(N)nc(Cl)nc54)CC3)sc2c1 [cpd 183, cis-N-[6-(acetylamino)-1,3-benzothiazol-2-yl]-4-(6-amino-2-chloro-9H-purin-9-yl)cyclohexanecarboxamide] | – |
| 0.043 | 5.47 | Nc1nc(Cl)nc2c1ncn2[C@H]1CC[C@@H](C(=O)Nc2nc3cc4c(cc3s2)OCO4)CC1 [cpd 186, cis-4-(6-amino-2-chloro-9H-purin-9-yl)-N-([1,3]dioxolo[4,5-f][1,3]benzothiazol-6-yl)cyclohexanecarboxamide] | – |
| 0.016 | > 10 | Nc1nc(F)nc2c1ncn2[C@H]1CC[C@@H](C(=O)Nc2nc3c(s2)CCCC3)CC1 [cpd 206, cis-4-(6-amino-2-fluoro-9H-purin-9-yl)-N-(4,5,6,7-tetrahydro-1,3-benzothiazol-2-yl)cyclohexanecarboxamide] | – |
